# Results published in US7273866B2, “2-aryl thiazole derivatives as KCNQ modulators” (Bristol-Myers Squibb Company, priority 2002, dated 2007).
# Test system: KCNQ channels
# Test: Thallium flux assay for KCNQ channel openers
# Assay type: cell-based
# Conditions: HEK-293 cells stably transfected with a KCNQ family member
# Procedure, shortened: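 HEK-293 lines stably expressing individual KCNQ members, loaded with BTC-AM in chloride-free buffer pH 7.3, compound added (1% DMSO final) before 7.5 mM Tl2SO4 stimulus; fluorescence read 60 s on FLIPR. Minimal active concentration at ≥4 SD above negative controls; EC50 from 10-point logistic fit.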
structure (smiles),measurement,setting,value
"CC(NC(=O)c1sc(-c2ccccc2F)nc1C(F)(F)F)c1cccc(OC(F)(F)F)c1 (centres unmarked) [Example 21, 2-(2-fluorophenyl)-4-(trifluoromethyl)-N-[1-[3-(trifluoromethoxy)phenyl]ethyl]-5-thiazolecarboxamide]",Min. conc. response,minimal active concentration: lowest concentration giving signal amplitude >= four standard deviations of negative controls,0.3 µM
same,EC50,"thallium flux, 10 point concentration series",< 50 nM
